For 3 compounds, viscosity, mass density and speed of sound results are on record in the NIST ThermoML archive (doi:10.1016/j.jct.2009.02.002).

The conditions of the data set: 101.33 kPa, Liquid; for viscosity: Capillary tube (Ostwald / Ubbelohde) method; for mass density: Vibrating tube method.
[1] abbreviates: 298.15 K, automatically measured using an Anton Paar DSA 5000 instrument.
Setting [2] is: 303.15 K, automatically measured using an Anton Paar DSA 5000 instrument.
The mark [3] stands for this setting: 308.15 K, automatically measured using an Anton Paar DSA 5000 instrument.

Broadly, the viscosity is the internal friction of a fluid under shear. In general, mass density refers to the mass of a sample divided by its volume. The term speed of sound denotes how fast a sound wave travels through the sample.

Numbers after ± are expanded uncertainties.

For the compound `CC(C)CCCC(C)CCCC(C)CCCCC(C)CCCC(C)CCCC(C)C` (configuration not stated) [2,6,10,15,19,23-hexamethyltetracosane], the viscosity (298.15 K) is on record as 28.26 ± 0.14 mPa·s, the viscosity (303.15 K) was found to be 22.09 ± 0.11 mPa·s and the viscosity (308.15 K) is given as 17.77 ± 0.09 mPa·s. Further, the mass density runs as follows: (298.15 K) 805.122 ± 0.14 kg/m3; (303.15 K) 801.912 ± 0.14 kg/m3; (308.15 K) 798.709 ± 0.14 kg/m3. Moreover, the speed of sound reads like this: under setting [1], 1381.9 ± 0.5 m/s; under setting [2], 1364.1 ± 0.5 m/s; under setting [3], 1346.5 ± 0.5 m/s.
For the compound `CC(C)CO` [2-methyl-1-propanol], the viscosity turned out to be 3.404 ± 0.021 mPa·s (298.15 K), 2.695 ± 0.017 mPa·s (303.15 K) and 2.188 ± 0.014 mPa·s (308.15 K). Moreover, the mass density runs as follows: (298.15 K) 798.52 ± 0.14 kg/m3; (303.15 K) 794.6 ± 0.14 kg/m3; (308.15 K) 790.63 ± 0.15 kg/m3. Further, the speed of sound was 1189.6 ± 0.5 m/s under setting [1], 1172.9 ± 0.5 m/s under setting [2] and 1156.2 ± 0.5 m/s under setting [3].
As for `CCCCCCCCCCCCCCCC` [hexadecane], the viscosity (298.15 K) was 3.041 ± 0.019 mPa·s, the viscosity (303.15 K) came out at 2.706 ± 0.017 mPa·s and the viscosity (308.15 K) is 2.409 ± 0.015 mPa·s. For the same compound, the speed of sound was 1338.6 ± 0.8 m/s (298.15 K, Pulse-echo method); 1320 ± 0.8 m/s (303.15 K, Pulse-echo method); 1301.7 ± 0.8 m/s (308.15 K, Pulse-echo method). Also, the mass density by setting is: (298.15 K) 770.456 ± 0.15 kg/m3; (303.15 K) 766.981 ± 0.15 kg/m3; (308.15 K) 763.52 ± 0.15 kg/m3.
